For this assay, the target named is T1, mAChR hM4 (Homo sapiens, UniProt P08173).
T1 construct: expressed in transfected cells; host or cells: CHO-K1 (Chinese hamster ovary) cells
T1 sequence (P08173 1-479): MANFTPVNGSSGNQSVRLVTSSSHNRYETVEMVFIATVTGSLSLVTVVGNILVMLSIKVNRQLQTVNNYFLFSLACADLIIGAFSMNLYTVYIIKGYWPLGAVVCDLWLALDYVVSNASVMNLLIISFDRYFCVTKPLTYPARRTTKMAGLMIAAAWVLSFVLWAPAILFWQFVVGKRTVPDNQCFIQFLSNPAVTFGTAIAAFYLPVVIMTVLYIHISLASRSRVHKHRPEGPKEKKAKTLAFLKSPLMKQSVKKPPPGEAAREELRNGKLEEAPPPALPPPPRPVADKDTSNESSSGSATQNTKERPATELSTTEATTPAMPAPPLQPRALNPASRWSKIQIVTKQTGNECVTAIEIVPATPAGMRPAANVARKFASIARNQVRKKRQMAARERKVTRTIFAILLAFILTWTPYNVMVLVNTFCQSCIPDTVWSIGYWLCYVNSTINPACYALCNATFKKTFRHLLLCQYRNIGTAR
Kind of assay: mAChR M4 cell-based functional assay (calcium flux, potentiation of EC20 acetylcholine response). The settings on record: mAChR hM4 cell-line; for Emax at 30 µM: % ACh maximum at 30 μM; for EC50: >10,000 estimated for low potency compounds lacking a plateau. An excerpt:
In one aspect, the disclosed compounds potentiate the agonist response (e.g., acetylcholine) of mAChR M4. In a further aspect, the disclosed compounds increase mAChR M4 response to non-maximal concentrations of agonist in the presence of compound compared to the response to agonist in the absence of compound. […] For example, activation of mAChR M4 activity can be determined by measurement of calcium flux in response to agonist, e.g. acetylcholine, in cells loaded with a Ca^2+-sensitive fluorescent dye (e.g., Fluo-4). In a further aspect, the calcium flux was measured as an increase in fluorescent static ratio. In a yet further aspect, positive allosteric modulator activity was analyzed as a concentration-dependent increase in the EC20 acetylcholine response (i.e. the response of mAChR M4 at a concentration of acetylcholine that yields 20% of the maximal response).
In one aspect, the disclosed compounds activate mAChR M4 response as an increase in calcium fluorescence in mAChR M4-transfected CHO-K1 cells in the presence of the compound, compared to the response of equivalent CHO-K1 cells in the absence of the compound. […] In a further aspect, the mAChR M4-transfected CHO-K1 cells are transfected with human mAChR M4. In a still further aspect, the mAChR M4-transfected CHO-K1 cells are transfected with rat mAChR M4.
Substituted 3-aminothieno[2,3-c]pyridine-2-carboxamide analogs were synthesized as described above. Activity (EC50 and Emax) was determined in the mAChR M4 cell-based functional assay as described above, and the data are shown in Table II for assays conducted using mAChR hM4 cell-line. The compound number corresponds to the compound numbers used in Table I.

A value given as a limit tells only on which side of the number the result lay.

We go through 28 compounds from patent US20160200733A1, “SUBSTITUTED THIENO[2,3-B]PYRIDINE-2-CARBOXAMIDE ANALOGS AS POSITIVE ALLOSTERIC MODULATORS OF THE MUSCARINIC ACETYLCHOLINE RECEPTOR M4” (Vanderbilt University, priority 2013, published 2016).

As a reminder, the Emax is the maximal effect, on the per cent scale that the assay sets. By EC50 is commonly meant the concentration that produces a half-maximal response.

Turning to `Cc1cc(C)c2c(Br)c(C(=O)NC3CC3)sc2n1` [Compound 4, 3-bromo-N-cyclopropyl-4,6-dimethylthieno[2,3-b]pyridine-2-carboxamide], the Emax at 30 µM is 49% and the EC50 was 4.8 µM.
Regarding `Cc1cc(C)c2c(Br)c(C(=O)N3Cc4ccccc4C3)sc2n1` [Compound 5, (3-bromo-4,6-dimethylthieno[2,3-b]pyridin-2-yl)(isoindolin-2-yl)methanone], the EC50 is > 10 µM.
As for `Cc1cc(C)c2c(Br)c(C(=O)NC3CCC3)sc2n1` [Compound 6, 3-bromo-N-cyclobutyl-4,6-dimethylthieno[2,3-b]pyridine-2-carboxamide], the maximum response (Emax) at 30 µM turned out to be 41% and the EC50 was > 10 µM.
In the case of `Cc1cc(C)c2c(Br)c(C(=O)NC3CCOC3)sc2n1` (centres unmarked) [Compound 7, 3-bromo-4,6-dimethyl-N-(tetrahydrofuran-3-yl)thieno[2,3-b]pyridine-2-carboxamide], the EC50 is > 10 µM.
With `Cc1cc(C)c2c(Br)c(C(=O)NC3(C)COC3)sc2n1` [Compound 8, 3-bromo-4,6-dimethyl-N-(3-methyloxetan-3-yl)thieno[2,3-b]pyridine-2-carboxamide], the Emax at 30 µM came to 59% and the 50% effective concentration (EC50) is 3.7 µM.
For `Cc1cc(C)c2c(Br)c(C(=O)NCc3cccnc3)sc2n1` [Compound 9, 3-bromo-4,6-dimethyl-N-(pyridin-3-ylmethyl)thieno[2,3-b]pyridine-2-carboxamide], in that order: 33% and 3 µM.
Regarding `COc1ccc(CNC(=O)c2sc3nc(C)cc(C)c3c2Br)cc1` [Compound 10, 3-bromo-N-(4-methoxybenzyl)-4,6-dimethylthieno[2,3-b]pyridine-2-carboxamide], the EC50 is > 10 µM.
Regarding `Cc1cc(C)c2c(Br)c(C(=O)NCC(C)C)sc2n1` [Compound 11, 3-bromo-N-isobutyl-4,6-dimethylthieno[2,3-b]pyridine-2-carboxamide], the EC50 is > 10 µM.
With `Cc1cc(C)c2c(Br)c(C(=O)NC3CCOCC3)sc2n1` [Compound 12, 3-bromo-4,6-dimethyl-N-(tetrahydro-2H-pyran-4-yl)thieno[2,3-b]pyridine-2-carboxamide], the EC50 is > 10 µM.
Consider `Cc1cc(C)c2c(Br)c(C(=O)NCC3CC3)sc2n1` [Compound 13, 3-bromo-N-(cyclopropylmethyl)-4,6-dimethylthieno[2,3-b]pyridine-2-carboxamide], for which the Emax at 30 µM worked out at 29% and the 50% effective concentration (EC50) is > 10 µM.
`Cc1cc(C)c2c(Br)c(C(=O)N3CCOCC3)sc2n1` [Compound 14, (3-bromo-4,6-dimethylthieno[2,3-b]pyridin-2-yl)(morpholino)methanone]: the EC50 is > 10 µM.
Take `COc1ccc(CNC(=O)c2cc3c(C)cc(C)nc3s2)cc1` [Compound 15, N-(4-methoxybenzyl)-4,6-dimethylthieno[2,3-b]pyridine-2-carboxamide]: the Emax at 30 µM came to 55% and the EC50 was 4 µM.
Taken in the same sequence, the figures for `COc1ccc(CNC(=O)c2sc3nc(C)cc(C)c3c2I)cc1` [Compound 16, 3-iodo-N-(4-methoxybenzyl)-4,6-dimethylthieno[2,3-b]pyridine-2-carboxamide] were 51% and 2.6 µM.
For `COc1ccc(CNC(=O)c2sc3nc(C)cc(C)c3c2C)cc1` [Compound 17, N-(4-methoxybenzyl)-3,4,6-trimethylthieno[2,3-b]pyridine-2-carboxamide], in that order: 53% and 2.4 µM.
Take `Cc1cc(C)c2c(C)c(C(=O)NC3CC3)sc2n1` [Compound 18, N-cyclopropyl-3,4,6-trimethylthieno[2,3-b]pyridine-2-carboxamide]: the Emax at 30 µM worked out at 73% and the half-maximal effective concentration (EC50) was > 10 µM.
For `Cc1cc(C)c2c(C)c(C(=O)NCc3ccc(S(C)(=O)=O)cc3)sc2n1` [Compound 19, 3,4,6-trimethyl-N-(4-(methylsulfonyl)benzyl)thieno[2,3-b]pyridine-2-carboxamide], the Emax at 30 µM came to 62% and the half-maximal effective concentration (EC50) was 4.2 µM.
On to `Cc1cc(C)c2c(C)c(C(=O)NCc3ccc4c(c3)CCO4)sc2n1` [Compound 20, N-((2,3-dihydrobenzofuran-5-yl)methyl)-3,4,6-trimethylthieno[2,3-b]pyridine-2-carboxamide], for which the maximal effect (Emax) at 30 µM amounted to 38% and the 50% effective concentration (EC50) was 2.6 µM.
For `Cc1cc(C)c2c(C)c(C(=O)NCc3ccc(OC(F)(F)F)cc3)sc2n1` [Compound 21, 3,4,6-trimethyl-N-(4-(trifluoro-methoxy)benzyl)thieno[2,3-b]pyridine-2-carboxamide], the concentration giving a half-maximal response (EC50) is > 10 µM.
Take `Cc1cc(C)c2c(C)c(C(=O)NC3CCOC3)sc2n1` (centres unmarked) [Compound 22, 3,4,6-trimethyl-N-(tetrahydrofuran-3-yl)thieno[2,3-b]pyridine-2-carboxamide]: the Emax at 30 µM stood at 67% and the EC50 was > 10 µM.
Consider `Cc1cc(C)c2c(C)c(C(=O)N3CCCC(F)(F)C3)sc2n1` [Compound 23, (3,3-difluoropiperidin-1-yl)(3,4,6-trimethylthieno[2,3-b]pyridin-2-yl)methanone], for which the EC50 is > 10 µM.
On the same count and under the same terms, the result for `Cc1cc(C)c2c(C)c(C(=O)N3CCCC3)sc2n1` [Compound 24, pyrrolidin-1-yl(3,4,6-trimethylthieno[2,3-b]pyridin-2-yl)methanone] reads > 10 µM.
In the case of `Cc1cc(C)c2c(C)c(C(=O)N[C@@H]3CCOC3)sc2n1` [Compound 25, (R)-3,4,6-trimethyl-N-(tetrahydrofuran-3-yl)thieno[2,3-b]pyridine-2-carboxamide], the Emax at 30 µM worked out at 60% and the concentration for a half-maximal effect (EC50) is > 10 µM.
On to `Cc1cc(C)c2c(C)c(C(=O)NC3CCOCC3)sc2n1` [Compound 26, 3,4,6-trimethyl-N-(tetrahydro-2H-pyran-4-yl)thieno[2,3-b]pyridine-2-carboxamide], for which the Emax at 30 µM was 44% and the EC50 was > 10 µM.
Turning to `CSc1ccc(CNC(=O)c2sc3nc(C)cc(C)c3c2C)cc1` [Compound 27, 3,4,6-trimethyl-N-(4-(methylthio)benzyl)thieno[2,3-b]pyridine-2-carboxamide], the maximal effect (Emax) at 30 µM was 49% and the concentration for a half-maximal effect (EC50) is 2.2 µM.
For `COc1ccc2c(c1)CCN(C(=O)c1sc3nc(C)cc(C)c3c1C)C2` [Compound 28, (6-methoxy-3,4-dihydroisoquinolin-2(1H)-yl)(3,4,6-trimethylthieno[2,3-b]pyridin-2-yl)methanone], the 50% effective concentration (EC50) is > 10 µM.
As for `COc1ccc(C(C)NC(=O)c2sc3nc(C)cc(C)c3c2C)cc1` (centres unmarked) [Compound 29, N-(1-(4-methoxyphenyl)ethyl)-3,4,6-trimethylthieno[2,3-b]pyridine-2-carboxamide], the EC50 was > 10 µM.
Consider `Cc1cc(C)c2c(C)c(C(=O)NCCN3CCOCC3)sc2n1` [Compound 30, 3,4,6-trimethyl-N-(2-morpholinoethyl)thieno[2,3-b]pyridine-2-carboxamide], for which the concentration giving a half-maximal response (EC50) was > 10 µM.
With `Cc1cc(C)c2c(C)c(C(=O)NCc3ccc4c(c3)OCCO4)sc2n1` [Compound 31, N-((2,3-dihydrobenzo[b][1,4]dioxin-6-yl)methyl)-3,4,6-trimethylthieno[2,3-b]pyridine-2-carboxamide], the maximum response (Emax) at 30 µM amounted to 57% and the EC50 was 2.2 µM.
